According to patent publication US12037333B2, “Pyridopyrazine and pyridotriazine inhibitors of influenza virus replication” (priority 2018, dated 2024):

tested on: Influenza type A (strain A/PR/8/34, ATCC VR-95); assay: Influenza antiviral assay: inhibition of virus-induced cytopathic effects (CPE) in MDCK cells, XTT dye reduction; type: cell-based; conditions: Influenza A (H1N1), strain A/PR/8/34, MDCK cells, CPE inhibition at 4 days

| Compound | EC50 [nM] |
| --- | --- |
| O=C1c2c(O)c(=O)ccn2N(C23c4ccccc4CC2Cc2c(Cl)cccc23)CN1CCF (centres unmarked) [Compound A114] | 125 to 250 |
| CC1N(CC(F)F)C(=O)c2c(O)c(=O)ccn2N1C12c3ccccc3CC1Cc1c2ccc(F)c1F (centres unmarked) [Compound A136] | 375 to 500 |
| CN1CN(C23c4ccccc4CC2Cc2c3ccc(F)c2Cl)n2ccc(=O)c(O)c2C1=O (centres unmarked) [Compound A90] | 125 to 250 |

same assay, conditions: Influenza A virus, H1N1 / PR/8, MDCK, 96 h, strain A/PR/8/34, MDCK cells, CPE inhibition at 4 days

| Compound | EC50 [nM] |
| --- | --- |
| CN1CN(C23c4ccc(F)cc4CC2Cc2cc(F)ccc23)n2ccc(=O)c(O)c2C1=O (centres unmarked) [Compound A3, 1-(2,7-Difluoro-9a,10-dihydro-9H-indeno[1,2-a]inden-4b-yl)-5-hydroxy-3-methyl-2,3-dihydro-1H-pyrido[2,1-f][1,2,4]triazine-4,6-dione] | 125 to 250 |
| CN1CN(C23c4ccccc4CC2(C)Cc2c3ccc(F)c2F)n2ccc(=O)c(O)c2C1=O (centres unmarked) [Compound A165] | < 125 |
| O=C1c2c(O)c(=O)ccn2N(C23c4ccccc4CC2Cc2c3ccc(F)c2F)CN1CCc1ccccc1 (centres unmarked) [Compound A25, 1-(1,2-difluoro-9a,10-dihydroindeno[1,2-a]inden-4b(9H)-yl)-5-hydroxy-3-phenethyl-2,3-dihydro-1H-pyrido[2,1-f][1,2,4]triazine-4,6-dione] | < 125 |
| CCCN1C(=O)c2c(O)c(=O)ccn2N(C23c4ccccc4CC2Cc2c(Cl)cccc23)C1C (centres unmarked) [Compound A132] | 250 to 375 |
| CN1CN(C23c4ccccc4CC2Cc2c3ccc(Cl)c2F)n2ccc(=O)c(O)c2C1=O (centres unmarked) [Compound A160] | < 125 |
| O=C1c2c(O)c(=O)ccn2N(C23c4ccccc4CC2Cc2c3ccc(F)c2F)CN1CC1CC1 (centres unmarked) [Compound A9, 3-Cyclopropylmethyl-1-(1,2-difluoro-9a,10-dihydro-9H-indeno[1,2-a]inden-4b-yl)-5-hydroxy-2,3-dihydro-1H-pyrido[2,1-f][1,2,4]triazine-4,6-dione] | > 500 |
| O=C1c2c(O)c(=O)ccn2N(C23c4ccccc4CC2Cc2c(Cl)cccc23)CN1CCCF (centres unmarked) [Compound A102] | 125 to 250 |
| O=C1c2c(O)c(=O)ccn2N(C23c4ccccc4CC2Cc2cc(F)c(F)cc23)CN1Cc1ccc(F)cc1 (centres unmarked) [Compound A23, 1-(2,3-Difluoro-9a,10-dihydro-9H-indeno[1,2-a]inden-4b-yl)-3-(4-fluoro-benzyl)-5-hydroxy-2,3-dihydro-1H-pyrido[2,1-f][1,2,4]triazine-4,6-dione] | > 500 |
| O=C1c2c(O)c(=O)ccn2N(C23c4ccccc4CC2Cc2c3ccc(F)c2F)CN1Cc1ccc(F)cc1 (centres unmarked) [Compound A17, 1-(1,2-Difluoro-9a,10-dihydro-9H-indeno[1,2-a]inden-4b-yl)-3-(4-fluoro-benzyl)-5-hydroxy-2,3-dihydro-1H-pyrido[2,1-f][1,2,4]triazine-4,6-dione] | 125 to 250 |
| CC1N(C2CCC2)C(=O)c2c(O)c(=O)ccn2N1C12c3ccccc3CC1Cc1c(F)cccc12 (centres unmarked) [Compound A141] | 375 to 500 |
| CCN1CN(C23c4ccccc4CC2Cc2c3ccc(F)c2F)n2ccc(=O)c(O)c2C1=O (centres unmarked) [Compound A14, 1-(1,2-Difluoro-9a,10-dihydro-9H-indeno[1,2-a]inden-4b-yl)-3-ethyl-5-hydroxy-2,3-dihydro-1H-pyrido[2,1-f][1,2,4]triazine-4,6-dione] | < 125 |
| O=C1c2c(O)c(=O)ccn2N(C23c4ccccc4CC2Cc2cc(F)c(F)cc23)CN1CCc1cccc(F)c1 (centres unmarked) [Compound A28, 1-(2,3-difluoro-9a,10-dihydroindeno[1,2-a]inden-4b(9H)-yl)-3-(3-fluorophenethyl)-5-hydroxy-2,3-dihydro-1H-pyrido[2,1-f][1,2,4]triazine-4,6-dione] | 125 to 250 |
| CC(C)N1CN(C23c4cccc(F)c4CC2(C)Cc2c(F)cccc23)n2ccc(=O)c(O)c2C1=O (centres unmarked) [Compound A89] | 125 to 250 |
| CC(CCN1CN(C23c4ccccc4CC2Cc2c3ccc(F)c2F)n2ccc(=O)c(O)c2C1=O)c1ccccc1 (centres unmarked) [Compound A91] | > 500 |
| COCCN1CN(C23c4ccccc4CC2Cc2c(Cl)cccc23)n2ccc(=O)c(O)c2C1=O (centres unmarked) [Compound A101] | 125 to 250 |
| CCC12Cc3ccccc3C1(N1CN(C)C(=O)c3c(O)c(=O)ccn31)c1ccccc1C2 (centres unmarked) [Compound A162] | < 125 |
| CC1N(C)C(=O)c2c(O)c(=O)ccn2N1C12c3ccccc3CC1Cc1ccccc12 (centres unmarked) [Compound A158] | 125 to 250 |
| O=C1c2c(O)c(=O)ccn2N(C23c4ccccc4CC2Cc2c(Cl)cccc23)CN1CCF (centres unmarked) [Compound A111] | 125 to 250 |
| CN1CN(C23c4ccccc4CC2Cc2c3ccc(F)c2F)n2ccc(=O)c(O)c2C1=O (centres unmarked) [Compound A6, 1-(1,2-Difluoro-9a,10-dihydro-9H-indeno[1,2-a]inden-4b-yl)-5-hydroxy-3-methyl-2,3-dihydro-1H-pyrido[2,1-f][1,2,4]triazine-4,6-dione] | < 125 |
| COCCN1CN(C23c4cccc(F)c4CC2Cc2c(F)cccc23)n2ccc(=O)c(O)c2C1=O (centres unmarked) [Compound A49] | < 125 |
| O=C1c2c(O)c(=O)ccn2N(C23c4cccc(F)c4CC2Cc2c(F)cccc23)CN1CCCF (centres unmarked) [Compound A72] | < 125 |
| CCN1CN(C23c4ccccc4CC2Cc2c3ccc(Cl)c2Cl)n2ccc(=O)c(O)c2C1=O (centres unmarked) [Compound A161] | < 125 |
| O=C1c2c(O)c(=O)ccn2N(C23c4ccccc4CC2Cc2cc(F)c(F)cc23)CN1CC1CC1 (centres unmarked) [Compound A13, 3-Cyclopropylmethyl-1-(2,3-difluoro-9a,10-dihydro-9H-indeno[1,2-a]inden-4b-yl)-5-hydroxy-2,3-dihydro-1H-pyrido[2,1-f][1,2,4]triazine-4,6-dione] | < 125 |
| CN1CN(C23c4ccccc4CC2(C)Cc2cc(F)ccc23)n2ccc(=O)c(O)c2C1=O (centres unmarked) [Compound A126] | 125 to 250 |

| Compound | EC50 [nM] |
| --- | --- |
| CC1N(C)C(=O)c2c(O)c(=O)ccn2N1C12c3ccccc3CC1Cc1c2ccc(F)c1F (centres unmarked) [Compound A64] | < 125 |
| O=C1c2c(O)c(=O)ccn2N(C23c4ccccc4CC2Cc2cc(F)c(F)cc23)CN1Cc1ccccc1 (centres unmarked) [Compound A21, 3-benzyl-1-(2,3-difluoro-9a,10-dihydroindeno[1,2-a]inden-4b(9H)-yl)-5-hydroxy-2,3-dihydro-1H-pyrido[2,1-f][1,2,4]triazine-4,6-dione] | 250 to 375 |
| O=C1c2c(O)c(=O)ccn2N(C23c4cccc(F)c4CC2Cc2c(F)cccc23)CN1CC1CCCCO1 (centres unmarked) [Compound A130] | > 500 |
| O=C1c2c(O)c(=O)ccn2N(C23c4ccccc4CC2Cc2c3ccc(F)c2F)CN1CC1CCCCC1 (centres unmarked) [Compound A99] | > 500 |
| O=C1c2c(O)c(=O)ccn2N(C23c4ccccc4CC2Cc2c3ccc(F)c2F)CN1Cc1ccccc1 (centres unmarked) [Compound A11, 3-Benzyl-1-(1,2-difluoro-9a,10-dihydro-9H-indeno[1,2-a]inden-4b-yl)-5-hydroxy-2,3-dihydro-1H-pyrido[2,1-t][1,2,4]triazine-4,6-dione] | > 500 |
| CN1CN(C23c4ccccc4CC2Cc2c3ccc(F)c2Cl)n2ccc(=O)c(O)c2C1=O (centres unmarked) [Compound A46, 1-(1-Chloro-2-fluoro-9a,10-dihydroindeno[1,2-a]inden-4b(9H)-yl)-5-hydroxy-3-methyl-2,3-dihydro-1H-pyrido[2,1-f][1,2,4]triazine-4,6-dione] | < 125 |
| CCN1CN(C23c4ccccc4CC2(C)Cc2cc(F)ccc23)n2ccc(=O)c(O)c2C1=O (centres unmarked) [Compound A116] | < 125 |
| CCN1C(=O)c2c(O)c(=O)ccn2N(C23c4ccccc4CC2Cc2c(F)cccc23)C1C (centres unmarked) [Compound A138] | 125 to 250 |
| Cc1c(F)ccc2c1CC1Cc3ccccc3C21N1CN(C)C(=O)c2c(O)c(=O)ccn21 (centres unmarked) [Compound A78] | < 125 |
| CN1CN(C23c4ccccc4CC2Cc2c3ccc(Cl)c2Cl)n2ccc(=O)c(O)c2C1=O (centres unmarked) [Compound A146] | < 125 |
| CC1N(CC(F)F)C(=O)c2c(O)c(=O)ccn2N1C12c3ccccc3CC1Cc1c(F)cccc12 (centres unmarked) [Compound A139] | 125 to 250 |
| O=C1c2c(O)c(=O)ccn2N(C23c4ccccc4CC2Cc2c3ccc(F)c2F)CN1CC(F)F (centres unmarked) [Compound A84] | < 125 |
| CN1CN(C23c4ccccc4CC2Cc2ccc(F)cc23)n2ccc(=O)c(O)c2C1=O (centres unmarked) [Compound A53] | < 125 |
| CCN1CN(C23c4ccccc4CC2Cc2c(C)cccc23)n2ccc(=O)c(O)c2C1=O (centres unmarked) [Compound A82] | < 125 |
| O=C1c2c(O)c(=O)ccn2N(C23c4cccc(F)c4CC2Cc2c(F)cccc23)CN1CCF (centres unmarked) [Compound A58] | < 125 |
| O=C1c2c(O)c(=O)ccn2N(C23c4cccc(F)c4CC2Cc2c(F)cccc23)CN1CC(F)F (centres unmarked) [Compound A71] | < 125 |
| CN1CN(C23c4ccccc4CC2Cc2ccccc23)n2ccc(=O)c(O)c2C1=O (centres unmarked) [Compound A1, 1-(9a, 10-dihydroindeno[1,2-a]inden-4b(9H)-yl)-5-hydroxy-3-methyl-2,3-dihydro-1H-pyrido[2,1-f][1,2,4]triazine-4,6-dione] | < 125 |
| CCOC12Cc3ccccc3C1(N1CN(CC)C(=O)c3c(O)c(=O)ccn31)c1ccccc1C2 (centres unmarked) [Compound A48, 1-(9a-Ethoxy-9a,10-dihydroindeno[1,2-a]inden-4b(9H)-yl)-3-ethyl-5-hydroxy-2,3-dihydro-1H-pyrido[2,1-f][1,2,4]triazine-4,6-dione] | < 125 |
| CC1N(C)C(=O)c2c(O)c(=O)ccn2N1C12c3cccc(F)c3CC1Cc1c(F)cccc12 (centres unmarked) [Compound A73] | < 125 |
| CCN1CN(C23c4ccccc4CC2(C)Cc2c3ccc(F)c2F)n2ccc(=O)c(O)c2C1=O (centres unmarked) [Compound A164] | < 125 |
| CN1CN(C23c4cc(F)ccc4CC2Cc2ccc(F)cc23)n2ccc(=O)c(O)c2C1=O (centres unmarked) [Compound A20, 1-(3,6-difluoro-9a,10-dihydroindeno[1,2-a]inden-4b(9H)-yl)-5-hydroxy-3-methyl-2,3-dihydro-1H-pyrido[2,1-f][1,2,4]triazine-4,6-dione] | < 125 |
| O=C1c2c(O)c(=O)ccn2N(C23c4ccccc4CC2Cc2ccccc23)CN1Cc1cccc(Cl)c1F (centres unmarked) [Compound A31, 3-(3-chloro-2-fluorobenzyl)-1-(9a,10-dihydroindeno[1,2-a]inden-4b(9H)-yl)-5-hydroxy-2,3-dihydro-1H-pyrido[2,1-f][1,2,4]triazine-4,6-dione] | > 500 |
| O=C1c2c(O)c(=O)ccn2N(C23c4ccccc4CC2Cc2c3ccc(F)c2F)CN1CC1CCCC1 (centres unmarked) [Compound A100] | > 500 |
